Legend:
[1] = Urine concentrations in humans after a single oral dose; type: in vivo, human; settings: LLOQ 229 nM
[2] = Phase 1 single-dose pharmacokinetics, mild renal impairment vs normal renal function; type: in vivo, human; settings: single oral 1.0-mg immediate-release tablet
Method: This was a phase 1, nonrandomized, open-label, parallel-group, single-dose study. A total of 20 subjects (10 subjects with mild renal impairment and 10 healthy subjects with normal renal function) were studied.
At screening, subjects were assigned to a study group according to estimated glomerular filtration rate (eGFR), calculated using the 2021 Chronic Kidney Disease Collaboration (CKD-EPI 2021) formula as follows, in Table 11: […]
Subjects remained fasted for 4 hours after study drug dosing (except diabetic subjects, who were allowed a light breakfast at 2 hours after study drug dosing as judged by the investigator). Except as part of study drug administration, subjects restricted their consumption of water for 2 hours before dosing and for 2 hours after dosing. At all other times during the study, subjects were able to consume water ad libitum.

[3] = tested on: rhythmic bladder contractions (RBC) in anesthetized female rats; test: Isovolumetric model: rhythmic bladder contractions (RBC), cystometry; type: in vivo, rat; settings: for Inhibition time: after i.v.; for RBC amplitude, basal / RBC frequency, basal: basal period −30/0 min before i.v. administration, group mean
Source text: In rats, under isovolumetric condition, bladder distension induced rhythmic bladder contractions (RBC) (Aizawa et al, (2015) Effects of L-arginine, mirabegron, and oxybutynin on the primary bladder afferent nerve activities synchronized with reflexic, rhythmic bladder contractions in the rat. Neurourology & Urodynamics 34:368-374). This isovolumetric model allows the evaluation of compound on RBC. It is a closed system where the bladder is slowly infused through a urethral catheter with saline until the occurrence of spontaneous rhythmic bladder contractions.
Test substance effects were compared to that of the reference substance, tolterodine, an […], marketed for overactive bladder in humans.
Protocol: • Animals were anesthetized with urethane (i.p.). • Ureters were ligated and sectioned close to the kidneys. • Intravesical catheter was inserted into the bladder though the urinary meatus. • Urinary meatus was closed. • A catheter was inserted into the jugular vein for compound administration. • Bladder was filled with saline until the occurrence of RBC. • After 30 min basal period, compounds were administered as described below. • The effect of the test substances was followed by 1-hour post administration.
Rats were anesthetized with an intraperitoneal administration of urethane (1 g/kg). The ureters were ligated and sectioned close to the kidneys. A catheter (0.30 and 0.70 mm of inner and outer diameters, respectively) was inserted through the urinary meatus into the bladder before urethral ligature. Another catheter (0.58 and 0.96 mm of inner and outer diameters, respectively) was inserted into the jugular vein for intravenous (i.v.) administration.
For all group, animals were treated by i.v. route (1 mL/kg) (slow bolus) after the basal period.
The vesical catheter was connected via a T-tube to a strain gauge (to measure intra-vesical pressure) and to a syringe. Isovolumetric bladder contractions were induced by stepwise injections of physiological saline at room temperature (100 μL every 5 min) until stable RBC occurred. Vesical pressure was continuously recorded. After a 30 min control period (basal values), substances or vehicle were i.v. administered. The effects of substances were followed during 60 min after administration. At the end of the experiments, animals were sacrificed by cervical dislocation.
The following parameters were analyzed: • Amplitude of RBC (mmHg) • Frequency of RBC (number/30 min) • Time of inhibition (sec)
The % variation from the basal values were calculated for RBC frequency and amplitude.
Statistical analysis and graphs were performed using GraphPad Prism® (GraphPad Software Inc., La Jolla, CA, USA). A p value <0.05 was accepted for statistical significance.

[4] = 0/60 min after i.v., Cpd (IA) 3 mg/kg (n=8), tolterodine 1 mg/kg, mean
[5] = 0/60 min after i.v., Cpd (IA) 3 mg/kg, tolterodine 1 mg/kg, mean
[6] = 0/60 min after i.v., Cpd (IA) 3 mg/kg, tolterodine 1 mg/kg, mean, listed as compound of formula (IA)
[7] = listed as compound of formula (IA)
[8] = i.v., Cpd (IA) 3 mg/kg, tolterodine 1 mg/kg, vs basal
[9] = i.v., Cpd (IA) 3 mg/kg, tolterodine 1 mg/kg, vs vehicle

O=C(O)c1nc2ccccc2n([C@H]2C[C@H]3CCC[C@@H](C2)N3C2CC3CCCC(C3)C2)c1=O (stereo partly shown) [Cpd (IA)]
Urine Conc., mean ([1]; single oral dose 0.2 mg, 16 to 24 h): BCL
Urine Conc., mean ([1]; single oral dose 0.2 mg, 24 to 32 h): BCL
Urine Conc., mean ([1]; single oral dose 0.2 mg, 32 to 40 h): BCL
Urine Conc., mean ([1]; single oral dose 0.2 mg, 40 to 48 h): BCL
Urine Conc., mean ([1]; single oral dose 0.6 mg, 16 to 24 h): BCL
Urine Conc., mean ([1]; single oral dose 0.6 mg, 24 to 32 h): BCL
Urine Conc., mean ([1]; single oral dose 0.6 mg, 32 to 40 h): BCL
Urine Conc., mean ([1]; single oral dose 0.6 mg, 40 to 48 h): BCL
Urine Conc., mean ([1]; single oral dose 2 mg, 16 to 24 h): 409 nM
Urine Conc., mean ([1]; single oral dose 2 mg, 24 to 32 h): BCL
Urine Conc., mean ([1]; single oral dose 2 mg, 32 to 40 h): BCL
Urine Conc., mean ([1]; single oral dose 2 mg, 40 to 48 h): BCL
Urine Conc., mean ([1]; single oral dose 10 mg, 16 to 24 h): 1004 nM
Urine Conc., mean ([1]; single oral dose 10 mg, 40 to 48 h): BCL
plasma concentrations at 72 and 96 hours ([2]; all subjects): all below the limit of quantitation
plasma concentrations over time, mild renal impairment versus normal renal function ([2]; n=10 per group): comparable
RBC amplitude, % variation from basal [3, 4]: 1.25%
RBC amplitude, treated period [3, 4]: 27.57 mmHg
RBC frequency, % variation from basal [3, 5]: ~88.57%
RBC frequency, treated period [3, 5]: 3.05 nb of RBC/30 min
RBC frequency, % variation from basal [3, 6]: -88.57±3.68%
RBC frequency, treated period [3, 6]: 3.05±1.02 nb of RBC/30 min
Inhibition time ([3]; Cpd (IA) 3 mg/kg, tolterodine 1 mg/kg, mean): 2860.51 s
Inhibition time ([3]; Cpd (IA) 3 mg/kg, tolterodine 1 mg/kg, mean, listed as compound of formula (IA)): 2860.51 ± 272.38 s
RBC amplitude, basal [3]: 29.49 mmHg
RBC frequency, basal [3]: 25.90 nb of RBC/30 min
RBC amplitude, basal [3, 7]: 29.49±2.46 mmHg
RBC frequency, basal [3, 7]: 25.90±1.36 nb of RBC/30 min
bladder afferent activity ([3]; conclusion of Example 1): significantly decreased
RBC amplitude, effect versus basal [3, 8]: No significant effect
RBC frequency, effect versus basal [3, 8]: significantly decreased
RBC amplitude (% variation), effect versus vehicle [3, 9]: did not significantly modify
RBC frequency (% variation), effect versus vehicle [3, 9]: significantly decreased
time of inhibition, effect versus vehicle [3, 9]: significantly increased

Reference: patent US20250381180A1, “METHODS OF TREATING OR PREVENTING OVERACTIVE BLADDER SYNDROME” (Purdue Pharma L.P., priority 2022, published 2025)
